In ChEMBL document CHEMBL2380247, “Synthesis and biological evaluation of novel aliphatic amido-quaternary ammonium salts for anticancer chemotherapy: part II” (2013):
Active and inactive are the calls of the source. The rule behind the calls is not given here.

Assays:
NCI-H23 [1] = assay: Antiproliferative activity against human NCI-H23 cells by SRB assay; type: functional
MDA-MB-231 [2] = assay: Antiproliferative activity against human MDA-MB-231 cells at 1 uM by SRB assay; type: functional
MDA-MB-231 [3] = assay: Antiproliferative activity against human MDA-MB-231 cells at 0.1 uM by SRB assay; type: functional
NUGC-3 [4] = assay: Antiproliferative activity against human NUGC3 cells at 3 uM by SRB assay; type: functional
NCI-H23 [5] = assay: Antiproliferative activity against human NCI-H23 cells at 0.3 uM by SRB assay; type: functional
NUGC-3 [6] = assay: Antiproliferative activity against human NUGC3 cells at 0.3 uM by SRB assay; type: functional
NCI-H23 [7] = assay: Antiproliferative activity against human NCI-H23 cells at 3 uM by SRB assay; type: functional
PC-3 [8] = assay: Antiproliferative activity against human PC3 cells at 1 uM by SRB assay; type: functional
MDA-MB-231 [9] = assay: Antiproliferative activity against human MDA-MB-231 cells at 3 uM by SRB assay; type: functional
MDA-MB-231 [10] = assay: Antiproliferative activity against human MDA-MB-231 cells by SRB assay; type: functional
HCT-15 [11] = assay: Antiproliferative activity against human HCT15 cells at 0.1 uM by SRB assay; type: functional
MDA-MB-231 [12] = assay: Antiproliferative activity against human MDA-MB-231 cells at 10 uM by SRB assay; type: functional
PC-3 [13] = assay: Antiproliferative activity against human PC3 cells at 10 uM by SRB assay; type: functional
NUGC-3 [14] = assay: Antiproliferative activity against human NUGC3 cells at 1 uM by SRB assay; type: functional
ACHN [15] = assay: Antiproliferative activity against human ACHN cells at 3 uM by SRB assay; type: functional
NCI-H23 [16] = assay: Antiproliferative activity against human NCI-H23 cells at 10 uM by SRB assay; type: functional
NUGC-3 [17] = assay: Antiproliferative activity against human NUGC3 cells at 10 uM by SRB assay; type: functional
NCI-H23 [18] = assay: Antiproliferative activity against human NCI-H23 cells at 1 uM by SRB assay; type: functional
NUGC-3 [19] = assay: Antiproliferative activity against human NUGC3 cells at 0.1 uM by SRB assay; type: functional
MDA-MB-231 [20] = assay: Antiproliferative activity against human MDA-MB-231 cells at 0.3 uM by SRB assay; type: functional
HCT-15 [21] = assay: Antiproliferative activity against human HCT15 cells by SRB assay; type: functional
ACHN [22] = assay: Antiproliferative activity against human ACHN cells at 10 uM by SRB assay; type: functional
ACHN [23] = assay: Antiproliferative activity against human ACHN cells at 0.3 uM by SRB assay; type: functional
PC-3 [24] = assay: Antiproliferative activity against human PC3 cells at 3 uM by SRB assay; type: functional
[25] = molecular target: Rho-related GTP-binding protein RhoB (Homo sapiens) (UniProt P62745); assay: Transactivation of RhoB in human HeLa cells by luciferase reporter assay; type: cell-based
Sequence of Rho-related GTP-binding protein RhoB (Homo sapiens) (P62745 whole entry): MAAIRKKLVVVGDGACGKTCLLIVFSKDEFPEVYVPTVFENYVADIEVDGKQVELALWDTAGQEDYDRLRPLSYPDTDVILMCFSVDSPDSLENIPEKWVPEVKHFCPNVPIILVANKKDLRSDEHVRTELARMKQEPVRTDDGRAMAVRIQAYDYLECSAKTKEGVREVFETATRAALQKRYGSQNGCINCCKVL

PC-3 [26] = assay: Antiproliferative activity against human PC3 cells at 0.1 uM by SRB assay; type: functional
HCT-15 [27] = assay: Antiproliferative activity against human HCT15 cells at 3 uM by SRB assay; type: functional
NUGC-3 [28] = assay: Antiproliferative activity against human NUGC3 cells by SRB assay; type: functional
PC-3 [29] = assay: Antiproliferative activity against human PC3 cells by SRB assay; type: functional
PC-3 [30] = assay: Antiproliferative activity against human PC3 cells at 0.3 uM by SRB assay; type: functional
[31] = molecular target: Rho-related GTP-binding protein RhoB (Homo sapiens) (UniProt P62745); assay: Inhibition of RhoB transactivation in human HeLa cells by luciferase reporter assay; type: cell-based
ACHN [32] = assay: Antiproliferative activity against human ACHN cells by SRB assay; type: functional
ACHN [33] = assay: Antiproliferative activity against human ACHN cells at 0.1 uM by SRB assay; type: functional
HCT-15 [34] = assay: Antiproliferative activity against human HCT15 cells at 0.3 uM by SRB assay; type: functional
HCT-15 [35] = assay: Antiproliferative activity against human HCT15 cells at 10 uM by SRB assay; type: functional
ACHN [36] = assay: Antiproliferative activity against human ACHN cells at 1 uM by SRB assay; type: functional
HCT-15 [37] = assay: Antiproliferative activity against human HCT15 cells at 1 uM by SRB assay; type: functional
NCI-H23 [38] = assay: Antiproliferative activity against human NCI-H23 cells at 0.1 uM by SRB assay; type: functional

| GI50 (NCI-H23 [1]) | GI50 (MDA-MB-231 [10]) | SMILES | growth, % of control at 1 µM (MDA-MB-231 [2]) | growth, % of control at 0.1 µM (MDA-MB-231 [3]) | growth, % of control at 3 µM (NUGC-3 [4]) | growth, % of control at 0.3 µM (NCI-H23 [5]) | growth, % of control at 0.3 µM (NUGC-3 [6]) | growth, % of control at 3 µM (NCI-H23 [7]) | growth, % of control at 1 µM (PC-3 [8]) | growth, % of control at 3 µM (MDA-MB-231 [9]) | growth, % of control at 0.1 µM (HCT-15 [11]) | growth, % of control at 10 µM (MDA-MB-231 [12]) | growth, % of control at 10 µM (PC-3 [13]) | growth, % of control at 1 µM (NUGC-3 [14]) | growth, % of control at 3 µM (ACHN [15]) | growth, % of control at 10 µM (NCI-H23 [16]) | growth, % of control at 10 µM (NUGC-3 [17]) | growth, % of control at 1 µM (NCI-H23 [18]) | growth, % of control at 0.1 µM (NUGC-3 [19]) | growth, % of control at 0.3 µM (MDA-MB-231 [20]) | other results |
| --- | --- | --- | --- | --- | --- | --- | --- | --- | --- | --- | --- | --- | --- | --- | --- | --- | --- | --- | --- | --- | --- |
| 1680 nM | 2410 nM | CCCCCCCCCCCCCCCCCC(=O)NCCC[N+](C)(C)C | 92.5% | 96% | 37.7% | 103% | 93% | 56.5% | 51.3% | 59.9% | 90.7% | 29.9% | -14.7% | 63.8% | 64.3% | 5.43% | 15.3% | 90.7% | 98.4% | 98.1% | GI50 (HCT-15 [21]): 790 nM; growth, % of control at 10 µM (ACHN [22]): 42.8%; growth, % of control at 0.3 µM (ACHN [23]): 101%; growth, % of control at 3 µM (PC-3 [24]): 3.63%; Activity [25]: Active; growth, % of control at 0.1 µM (PC-3 [26]): 97.5%; growth, % of control at 3 µM (HCT-15 [27]): 30.8%; GI50 (NUGC-3 [28]): 970 nM; GI50 (PC-3 [29]): 520 nM; growth, % of control at 0.3 µM (PC-3 [30]): 97.7%; inhibition [31]: Active; GI50 (ACHN [32]): 3400 nM; growth, % of control at 0.1 µM (ACHN [33]): 99.2%; growth, % of control at 0.3 µM (HCT-15 [34]): 86.5%; growth, % of control at 10 µM (HCT-15 [35]): 11.2%; growth, % of control at 1 µM (ACHN [36]): 85%; growth, % of control at 1 µM (HCT-15 [37]): 64.3%; growth, % of control at 0.1 µM (NCI-H23 [38]): 102% |
| 560 nM | 1780 nM | CCCCCCCCCCCCCC(=O)N(C)CCC[N+](C)(C)C | 88.9% | 95.2% | 23.3% | 99.1% | 70.3% | 8.98% | 32.1% | 54.6% | 88% | 23.8% | -4.36% | 35.7% | 41.2% | -5.73% | 13.7% | 61.8% | 85.1% | 98.7% | GI50 (HCT-15 [21]): 1720 nM; growth, % of control at 10 µM (ACHN [22]): 21.2%; growth, % of control at 0.3 µM (ACHN [23]): 82.2%; growth, % of control at 3 µM (PC-3 [24]): -1.93%; Activity [25]: Active; growth, % of control at 0.1 µM (PC-3 [26]): 86.7%; growth, % of control at 3 µM (HCT-15 [27]): 62%; GI50 (NUGC-3 [28]): 320 nM; GI50 (PC-3 [29]): 320 nM; growth, % of control at 0.3 µM (PC-3 [30]): 87.1%; GI50 (ACHN [32]): 1010 nM; growth, % of control at 0.1 µM (ACHN [33]): 81.1%; growth, % of control at 0.3 µM (HCT-15 [34]): 90.9%; growth, % of control at 10 µM (HCT-15 [35]): 16.5%; growth, % of control at 1 µM (ACHN [36]): 72.4%; growth, % of control at 1 µM (HCT-15 [37]): 82.6%; growth, % of control at 0.1 µM (NCI-H23 [38]): 97.3% |
